± gives the expanded uncertainty stated by the source.
Test: molar heat capacity at constant pressure
Details: Liquid, Large sample (1 g) DSC

FC(F)(F)CC(F)(F)F [1,1,1,3,3,3-hexafluoropropane]
molar heat capacity at constant pressure (315.15 K, 1480 kPa): 195.67 ± 6.8 J/K/mol
molar heat capacity at constant pressure (315.15 K, 2490 kPa): 193.7 ± 6.8 J/K/mol
molar heat capacity at constant pressure (315.15 K, 3540 kPa): 192.48 ± 6.7 J/K/mol
molar heat capacity at constant pressure (315.15 K, 4560 kPa): 191.42 ± 6.7 J/K/mol
molar heat capacity at constant pressure (315.15 K, 5410 kPa): 190.05 ± 6.7 J/K/mol
molar heat capacity at constant pressure (320.15 K, 1480 kPa): 198.71 ± 7 J/K/mol
molar heat capacity at constant pressure (320.15 K, 2490 kPa): 196.59 ± 6.8 J/K/mol
molar heat capacity at constant pressure (320.15 K, 3540 kPa): 194.91 ± 6.8 J/K/mol
molar heat capacity at constant pressure (320.15 K, 4560 kPa): 193.7 ± 6.8 J/K/mol
molar heat capacity at constant pressure (320.15 K, 5410 kPa): 192.78 ± 6.7 J/K/mol
molar heat capacity at constant pressure (325.15 K, 1480 kPa): 202.06 ± 7.1 J/K/mol
molar heat capacity at constant pressure (325.15 K, 2490 kPa): 199.78 ± 7 J/K/mol
molar heat capacity at constant pressure (325.15 K, 3540 kPa): 197.95 ± 7 J/K/mol
molar heat capacity at constant pressure (325.15 K, 4560 kPa): 196.43 ± 6.8 J/K/mol
molar heat capacity at constant pressure (325.15 K, 5410 kPa): 195.67 ± 6.8 J/K/mol
molar heat capacity at constant pressure (330.15 K, 1480 kPa): 205.71 ± 7.1 J/K/mol
molar heat capacity at constant pressure (330.15 K, 2490 kPa): 203.28 ± 7.1 J/K/mol
molar heat capacity at constant pressure (330.15 K, 3540 kPa): 201.45 ± 7 J/K/mol
molar heat capacity at constant pressure (330.15 K, 4560 kPa): 199.78 ± 7 J/K/mol
molar heat capacity at constant pressure (330.15 K, 5410 kPa): 199.02 ± 7 J/K/mol
molar heat capacity at constant pressure (335.15 K, 1480 kPa): 209.36 ± 7.3 J/K/mol
molar heat capacity at constant pressure (335.15 K, 2490 kPa): 207.08 ± 7.3 J/K/mol
molar heat capacity at constant pressure (335.15 K, 3540 kPa): 205.1 ± 7.1 J/K/mol
molar heat capacity at constant pressure (335.15 K, 4560 kPa): 203.28 ± 7.1 J/K/mol
molar heat capacity at constant pressure (335.15 K, 5410 kPa): 202.21 ± 7.1 J/K/mol
molar heat capacity at constant pressure (340.15 K, 1480 kPa): 213.46 ± 7.4 J/K/mol
molar heat capacity at constant pressure (340.15 K, 2490 kPa): 210.73 ± 7.3 J/K/mol
molar heat capacity at constant pressure (340.15 K, 3540 kPa): 208.6 ± 7.3 J/K/mol
molar heat capacity at constant pressure (340.15 K, 4560 kPa): 206.77 ± 7.3 J/K/mol
molar heat capacity at constant pressure (340.15 K, 5410 kPa): 205.56 ± 7.1 J/K/mol
molar heat capacity at constant pressure (345.15 K, 1480 kPa): 218.02 ± 7.6 J/K/mol
molar heat capacity at constant pressure (345.15 K, 2490 kPa): 214.83 ± 7.4 J/K/mol
molar heat capacity at constant pressure (345.15 K, 3540 kPa): 212.25 ± 7.4 J/K/mol
molar heat capacity at constant pressure (345.15 K, 4560 kPa): 210.27 ± 7.3 J/K/mol
molar heat capacity at constant pressure (345.15 K, 5410 kPa): 208.9 ± 7.3 J/K/mol
molar heat capacity at constant pressure (350.15 K, 1480 kPa): 223.34 ± 7.8 J/K/mol
molar heat capacity at constant pressure (350.15 K, 2490 kPa): 219.24 ± 7.6 J/K/mol
molar heat capacity at constant pressure (350.15 K, 3540 kPa): 216.35 ± 7.6 J/K/mol
molar heat capacity at constant pressure (350.15 K, 4560 kPa): 214.07 ± 7.4 J/K/mol
molar heat capacity at constant pressure (350.15 K, 5410 kPa): 212.4 ± 7.4 J/K/mol
molar heat capacity at constant pressure (355.15 K, 2490 kPa): 224.56 ± 7.9 J/K/mol
molar heat capacity at constant pressure (355.15 K, 3540 kPa): 221.22 ± 7.8 J/K/mol
molar heat capacity at constant pressure (355.15 K, 4560 kPa): 218.33 ± 7.6 J/K/mol
molar heat capacity at constant pressure (355.15 K, 5410 kPa): 216.35 ± 7.6 J/K/mol
molar heat capacity at constant pressure (360.15 K, 2490 kPa): 231.1 ± 8.1 J/K/mol
molar heat capacity at constant pressure (360.15 K, 3540 kPa): 226.84 ± 7.9 J/K/mol
molar heat capacity at constant pressure (360.15 K, 4560 kPa): 223.5 ± 7.8 J/K/mol
molar heat capacity at constant pressure (360.15 K, 5410 kPa): 221.06 ± 7.8 J/K/mol
molar heat capacity at constant pressure (365.15 K, 2490 kPa): 239.92 ± 8.4 J/K/mol
molar heat capacity at constant pressure (365.15 K, 3540 kPa): 233.53 ± 8.2 J/K/mol
molar heat capacity at constant pressure (365.15 K, 4560 kPa): 230.49 ± 8.1 J/K/mol
molar heat capacity at constant pressure (365.15 K, 5410 kPa): 227.45 ± 7.9 J/K/mol

FC(F)CC(F)(F)F [1,1,1,3,3-pentafluoropropane]
molar heat capacity at constant pressure (315.15 K, 1590 kPa): 184.58 ± 7.1 J/K/mol
molar heat capacity at constant pressure (315.15 K, 2520 kPa): 184.05 ± 7.1 J/K/mol
molar heat capacity at constant pressure (315.15 K, 3480 kPa): 183.78 ± 7.1 J/K/mol
molar heat capacity at constant pressure (315.15 K, 4530 kPa): 182.98 ± 7.1 J/K/mol
molar heat capacity at constant pressure (315.15 K, 5500 kPa): 182.44 ± 7.1 J/K/mol
molar heat capacity at constant pressure (320.15 K, 1590 kPa): 185.79 ± 7.2 J/K/mol
molar heat capacity at constant pressure (320.15 K, 2520 kPa): 185.12 ± 7.1 J/K/mol
molar heat capacity at constant pressure (320.15 K, 3480 kPa): 184.72 ± 7.1 J/K/mol
molar heat capacity at constant pressure (320.15 K, 4530 kPa): 183.91 ± 7.1 J/K/mol
molar heat capacity at constant pressure (320.15 K, 5500 kPa): 183.24 ± 7.1 J/K/mol
molar heat capacity at constant pressure (325.15 K, 1590 kPa): 187.8 ± 7.2 J/K/mol
molar heat capacity at constant pressure (325.15 K, 2520 kPa): 186.73 ± 7.2 J/K/mol
molar heat capacity at constant pressure (325.15 K, 3480 kPa): 186.19 ± 7.2 J/K/mol
molar heat capacity at constant pressure (325.15 K, 4530 kPa): 185.39 ± 7.1 J/K/mol
molar heat capacity at constant pressure (325.15 K, 5500 kPa): 184.58 ± 7.1 J/K/mol
molar heat capacity at constant pressure (330.15 K, 1590 kPa): 191.02 ± 7.4 J/K/mol
molar heat capacity at constant pressure (330.15 K, 2520 kPa): 189.95 ± 7.4 J/K/mol
molar heat capacity at constant pressure (330.15 K, 3480 kPa): 189.01 ± 7.4 J/K/mol
molar heat capacity at constant pressure (330.15 K, 4530 kPa): 188.07 ± 7.2 J/K/mol
molar heat capacity at constant pressure (330.15 K, 5500 kPa): 187.13 ± 7.2 J/K/mol
molar heat capacity at constant pressure (335.15 K, 1590 kPa): 195.31 ± 7.5 J/K/mol
molar heat capacity at constant pressure (335.15 K, 2520 kPa): 194.37 ± 7.5 J/K/mol
molar heat capacity at constant pressure (335.15 K, 3480 kPa): 193.16 ± 7.5 J/K/mol
molar heat capacity at constant pressure (335.15 K, 4530 kPa): 191.82 ± 7.4 J/K/mol
molar heat capacity at constant pressure (335.15 K, 5500 kPa): 191.02 ± 7.4 J/K/mol
molar heat capacity at constant pressure (340.15 K, 1590 kPa): 200.13 ± 7.8 J/K/mol
molar heat capacity at constant pressure (340.15 K, 2520 kPa): 199.2 ± 7.6 J/K/mol
molar heat capacity at constant pressure (340.15 K, 3480 kPa): 197.85 ± 7.6 J/K/mol
molar heat capacity at constant pressure (340.15 K, 4530 kPa): 196.25 ± 7.6 J/K/mol
molar heat capacity at constant pressure (340.15 K, 5500 kPa): 195.44 ± 7.5 J/K/mol
molar heat capacity at constant pressure (345.15 K, 1590 kPa): 204.83 ± 7.9 J/K/mol
molar heat capacity at constant pressure (345.15 K, 2520 kPa): 204.02 ± 7.9 J/K/mol
molar heat capacity at constant pressure (345.15 K, 3480 kPa): 202.55 ± 7.8 J/K/mol
molar heat capacity at constant pressure (345.15 K, 4530 kPa): 200.94 ± 7.8 J/K/mol
molar heat capacity at constant pressure (345.15 K, 5500 kPa): 200.13 ± 7.8 J/K/mol
molar heat capacity at constant pressure (350.15 K, 1590 kPa): 209.52 ± 8 J/K/mol
molar heat capacity at constant pressure (350.15 K, 2520 kPa): 208.44 ± 8 J/K/mol
molar heat capacity at constant pressure (350.15 K, 3480 kPa): 207.1 ± 8 J/K/mol
molar heat capacity at constant pressure (350.15 K, 4530 kPa): 205.5 ± 7.9 J/K/mol
molar heat capacity at constant pressure (350.15 K, 5500 kPa): 204.56 ± 7.9 J/K/mol
molar heat capacity at constant pressure (355.15 K, 1590 kPa): 214.07 ± 8.3 J/K/mol
molar heat capacity at constant pressure (355.15 K, 2520 kPa): 212.73 ± 8.2 J/K/mol
molar heat capacity at constant pressure (355.15 K, 3480 kPa): 211.66 ± 8.2 J/K/mol
molar heat capacity at constant pressure (355.15 K, 4530 kPa): 210.05 ± 8.2 J/K/mol
molar heat capacity at constant pressure (355.15 K, 5500 kPa): 208.98 ± 8 J/K/mol
molar heat capacity at constant pressure (360.15 K, 1590 kPa): 219.3 ± 8.4 J/K/mol
molar heat capacity at constant pressure (360.15 K, 2520 kPa): 217.69 ± 8.4 J/K/mol
molar heat capacity at constant pressure (360.15 K, 3480 kPa): 216.76 ± 8.4 J/K/mol
molar heat capacity at constant pressure (360.15 K, 4530 kPa): 214.74 ± 8.3 J/K/mol
molar heat capacity at constant pressure (360.15 K, 5500 kPa): 213.67 ± 8.3 J/K/mol
molar heat capacity at constant pressure (365.15 K, 1590 kPa): 226.54 ± 8.7 J/K/mol
molar heat capacity at constant pressure (365.15 K, 2520 kPa): 224.26 ± 8.7 J/K/mol
molar heat capacity at constant pressure (365.15 K, 3480 kPa): 222.65 ± 8.6 J/K/mol
molar heat capacity at constant pressure (365.15 K, 4530 kPa): 220.51 ± 8.6 J/K/mol
molar heat capacity at constant pressure (365.15 K, 5500 kPa): 219.44 ± 8.4 J/K/mol

Source: the NIST ThermoML archive (doi:10.1016/j.jct.2015.06.014)
